From ChEMBL document CHEMBL3351894, “Development and evaluation of ST-1829 based on 5-benzylidene-2-phenylthiazolones as promising agent for anti-leukotriene therapy” (Eur J Med Chem, 2015)
≈ marks a conversion by molar mass, not a printed value. Calls of active or inactive are those of the source. No cut-off for these calls is given here.

Key:
[1] = biological target: T1, Polyunsaturated fatty acid 5-lipoxygenase (Homo sapiens, UniProt P09917); assay: Inhibition of 5-LO in human PMNL using arachidonic acid as substrate assessed as product formation incubated for 15 mins prior to substrate addition measured after 10 mins by HPLC analysis
T1 sequence (P09917 whole entry): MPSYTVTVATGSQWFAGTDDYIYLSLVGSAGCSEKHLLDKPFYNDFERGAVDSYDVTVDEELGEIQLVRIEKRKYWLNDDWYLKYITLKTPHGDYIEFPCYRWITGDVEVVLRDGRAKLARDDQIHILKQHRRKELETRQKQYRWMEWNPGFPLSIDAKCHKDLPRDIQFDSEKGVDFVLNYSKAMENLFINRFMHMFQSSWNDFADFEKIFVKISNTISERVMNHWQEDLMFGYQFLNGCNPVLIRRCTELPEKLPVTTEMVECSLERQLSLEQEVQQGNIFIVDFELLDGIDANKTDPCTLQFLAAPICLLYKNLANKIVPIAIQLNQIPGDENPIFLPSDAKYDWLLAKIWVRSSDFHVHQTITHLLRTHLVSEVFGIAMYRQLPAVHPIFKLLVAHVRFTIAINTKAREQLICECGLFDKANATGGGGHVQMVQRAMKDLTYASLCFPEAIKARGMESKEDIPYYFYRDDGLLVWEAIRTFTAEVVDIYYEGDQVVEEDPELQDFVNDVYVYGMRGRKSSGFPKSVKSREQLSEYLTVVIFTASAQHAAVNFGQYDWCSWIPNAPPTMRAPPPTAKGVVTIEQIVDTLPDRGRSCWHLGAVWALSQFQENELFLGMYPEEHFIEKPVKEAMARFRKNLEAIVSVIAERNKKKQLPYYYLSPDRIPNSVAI

[2] = biological target: T1, Polyunsaturated fatty acid 5-lipoxygenase; assay: Inhibition of 5-LO in human PMNL S100 extract using arachidonic acid as substrate incubated for 15 mins prior to substrate addition measured after 10 mins by HPLC analysis
[3] = Solubility of the compound in PBS at pH 7.4 at RT; format: physicochemical
[4] = Solubility of the compound in DMSO at RT; format: physicochemical
[5] = biological target: T2, Polyunsaturated fatty acid 5-lipoxygenase (Homo sapiens) (UniProt P09917); assay: Inhibition of 5-LO in human PMNL using arachidonic acid as substrate assessed as product formation at 1 to 10 uM incubated for 15 mins prior to substrate addition measured after 10 mins by HPLC analysis in presence of 10% fetal calf serum
T2 sequence (whole entry): T1 sequence (P09917 whole entry)

[6] = biological target: T2, Polyunsaturated fatty acid 5-lipoxygenase (Homo sapiens); assay: Reversible inhibition of 5-LO in human PMNL using arachidonic acid as substrate assessed as product formation incubated for 15 mins followed by compound washout measured after 10 mins by HPLC analysis
[7] = Cytotoxicity against human U937 cells at 30 uM after 48 hrs by LDH assay; format: cell-based; settings: u-937, 48 h
[8] = Cytotoxicity against human U937 cells assessed as cell viability after 48 hrs by WST-1 assay; format: cell-based; settings: U-937, 48 h
[9] = biological target: T2, Polyunsaturated fatty acid 5-lipoxygenase (Homo sapiens); settings: 0.01 to 1 uM
Description: Inhibition of 5-LO in human PMNL using arachidonic acid as substrate assessed as product formation at 0.01 to 1 uM incubated for 15 mins prior to substrate addition measured after 10 mins by HPLC analysis in presence of 10% fetal calf serum

[10] = Cytotoxicity against human U937 cells assessed as cell viability at 100 uM after 48 hrs by WST-1 assay; format: cell-based, U-937; settings: read-out: Activity
[11] = Cytotoxicity against human U937 cells at 100 uM after 48 hrs by LDH assay; format: cell-based; settings: u-937, 48 h

Structure (SMILES) | IC50 [1] [µM] | IC50 [2] [µM] | further results
Cc1ccc(C2=NC(=O)/C(=C/c3ccc(OCCN4CCOCC4)cc3)S2)cc1 | 2.33 | 0.52 | solubility [3]: 0.03 mM (≈ 12.3 µg/mL); solubility [4]: 10 mM (≈ 4090 µg/mL)
Cc1ccc(C2=NC(=O)/C(=C/c3ccncc3)S2)cc1 | 2.19 | 0.33 | –
COc1ccc(/C=C2\SC(c3ccncc3)=NC2=O)cc1 | 2.99 | 0.44 | –
Cc1ccc(C2=NC(=O)/C(=C/c3ccc(S(C)(=O)=O)cc3)S2)cc1 | 5.29 | 0.19 | –
Cc1ccc(C2=NC(=O)/C(=C/c3[nH]cnc3C)S2)cc1 | 14.9 | 6.04 | –
COc1ccc(/C=C2\SC(c3ccc[n+](C)c3)=NC2=O)cc1 | > 30 | 4.62 | –
COc1ccc(/C=C2\OC(c3ccc(C)cc3)=NC2=O)cc1 | 10.5 | 1.86 | –
COc1ccc(/C=C2\SC(c3ccc(C)cc3)=NC2=O)cc1 | – | – | inhibition [5]: inactive; inhibition [6]: Active; solubility [3]: 0.03 mM (≈ 9.28 µg/mL); solubility [4]: 10 mM (≈ 3090 µg/mL)
COc1ccc(/C=C2\SC(c3cnccn3)=NC2=O)cc1 | 2.87 | 0.3 | –
COc1ccc(/C=C2/SC(=S)N(c3ccc(C)cc3)C2=O)cc1 | > 30 | > 30 | –
Cc1ccc(C2=NC(=O)/C(=C/c3ccc(N4CCOCC4)cc3)S2)cc1 | 3.65 | 1.07 | solubility [3]: 0.01 mM (≈ 3.64 µg/mL); solubility [4]: 10 mM (≈ 3640 µg/mL)
Cc1ccc(C2=NC(=O)/C(=C/c3ccc(OCC(=O)N4CCOCC4)cc3)S2)cc1 | 1.66 | 0.73 | solubility [3]: 0.05 mM (≈ 21.1 µg/mL); solubility [4]: 20 mM (≈ 8450 µg/mL)
COc1ccc(/C=C2\SC(c3cccnc3)=NC2=O)cc1 | 2.66 | 0.96 | –
Cc1ccc(C2=NC(=O)/C(=C/c3ccc(C(=O)O)cc3)S2)cc1 | 8.36 | 1.46 | –
COc1ccc(/C=C2\C=C(c3ccc(C)cc3)OC2=O)cc1 | > 30 | > 30 | –
COc1ccc(/C=C2\C=C(c3ccc(C)cc3)NC2=O)cc1 | 10.3 | 11.8 | –
COC1CCC(=Cc2sc(-c3ccc(C)cc3)nc2O)CC1 (stereo unspecified) | 1.56 | 0.59 | –
CCCCCC(O)c1cccc(OCc2ccc3ccccc3n2)c1 (stereo unspecified) [REV-5901] | – | – | viability at 48 h, 100 µM [10]: < 1%; Activity [11]: 22.5%
COc1ccc(NC2(OC)SC(c3ccc(C)cc3)=NC2=O)cc1 (stereo unspecified) | > 30 | > 30 | –
COc1ccc(/C=C2\N=C(c3ccc(C)cc3)OC2=O)cc1 | > 30 | > 30 | –
Cc1ccc(C2=NC(=O)/C(=C/c3ccc[nH]3)S2)cc1 | 1.58 | 8.02 | –
COc1ccc(/N=C2\SC(c3ccc(C)cc3)=NC2=O)cc1 | 10.3 | 8.22 | –
COC(=O)/C=C/c1ccc(/C=C2\SC(c3ccc(C)cc3)=NC2=O)cc1 | 3.61 | 0.18 | –
COc1ccc(/C=C2\S/C(=N/c3ccc(C)cc3)NC2=O)cc1 | 2.9 | > 30 | –
CC(c1cc2ccccc2s1)N(O)C(N)=O (stereo unspecified) [ZILEUTON] | – | – | viability at 48 h, 100 µM [10]: 86.5%; Activity [11]: 1.5%
COc1ccc(C(=C2SC(c3ccc(C)cc3)=NC2=O)c2ccc(OC)cc2)cc1 | 8.55 | 6.15 | –
COc1ccc(/C=C2\N=C(c3ccc(C)cc3)NC2=O)cc1 | 1.95 | 7.8 | –
Cc1ccc(C2=NC(=O)/C(=C/c3ncc[nH]3)S2)cc1 | 6.09 | 2.69 | –

More lines, in order of falling IC50 [1], values ahead:

IC50 [1] [µM] | IC50 [2] [µM] | Structure (SMILES) | further results
1.5 | > 30 | COc1ccc(-c2sc(-c3ccc(C)cc3)nc2C)cc1 | –
1.44 | 0.25 | Cc1ccc(C2=NC(=O)/C(=C/c3cccc(S(N)(=O)=O)c3)S2)cc1 | solubility [3]: 0.08 mM (≈ 28.7 µg/mL); solubility [4]: 30 mM (≈ 10800 µg/mL)
1.33 | 0.58 | Cc1ccc(C2=NC(=O)/C(=C/c3ccc(N)cc3)S2)cc1 | –
1.24 | 0.28 | Cc1ccc(C2=NC(=O)/C(=C/c3cccnc3)S2)cc1 | –
1.13 | 0.33 | Cc1ccc(C2=NC(=O)/C(=C/c3ccc(O)cc3)S2)cc1 | solubility [3]: 0.03 mM (≈ 8.86 µg/mL); solubility [4]: 50 mM (≈ 14800 µg/mL)
1.07 | > 3 | Cc1ccc(C2=NC(=O)/C(=C/c3c[nH]c4ccccc34)S2)cc1 | –
0.98 | 0.86 | Cc1ccc(C2=NC(=O)/C(=C/c3cccs3)S2)cc1 | –
0.94 | > 30 | COc1ccc(/C=C2\SC(c3ccc(C)cc3)N(C)C2=O)cc1 (stereo unspecified) | –
0.79 | 0.35 | Cc1ccc(-c2nc(O)c(C=C3CCCCC3)s2)cc1 | –
0.74 | 0.33 | Cc1ccc(C2=NC(=O)/C(=C/c3ccc(OC(=O)N4CCOCC4)cc3)S2)cc1 | solubility [3]: 0.05 mM (≈ 20.4 µg/mL); solubility [4]: 10 mM (≈ 4080 µg/mL)
0.72 | 0.2 | COc1ccc(Cc2sc(-c3ccc(C)cc3)nc2O)cc1 | solubility [3]: 0.08 mM (≈ 24.9 µg/mL); solubility [4]: 100 mM (≈ 31100 µg/mL)
0.69 | 0.16 | COC(=O)c1ccc(/C=C2\SC(c3ccc(C)cc3)=NC2=O)cc1 | –
0.58 | 0.16 | CC(=O)c1ccc(/C=C2\SC(c3ccc(C)cc3)=NC2=O)cc1 | –
0.43 | 0.17 | COc1ccc(-c2sc(-c3ccc(C)cc3)nc2O)cc1 | solubility [3]: 0.05 mM (≈ 14.9 µg/mL); solubility [4]: 50 mM (≈ 14900 µg/mL)
0.41 | 0.12 | Cc1ccc(C2=NC(=O)/C(=C/C34CC5CC(CC(C5)C3)C4)S2)cc1 | –
0.28 | 0.08 | COc1ccc(/C=C2/SC(c3ccc(Cl)cc3)=NC2=O)cc1 | solubility [3]: 0.03 mM (≈ 9.89 µg/mL); solubility [4]: 15 mM (≈ 4950 µg/mL)
0.22 | 0.35 | COc1ccc(/C=C/C=C2\SC(c3ccc(C)cc3)=NC2=O)cc1 | –
0.12 | 0.08 | COc1ccc(/C=C2/SC(c3cccc4ccccc34)=NC2=O)cc1 | solubility [3]: 0.03 mM (≈ 10.4 µg/mL); solubility [4]: 10 mM (≈ 3450 µg/mL)
0.01 | 0.05 | COc1ccc(-c2sc(-c3ccc(Cl)cc3)nc2O)cc1 | Activity [7]: Non-toxic; solubility [3]: 0.05 mM (≈ 15.9 µg/mL); IC50 [8]: > 30 µM; solubility [4]: 50 mM (≈ 15900 µg/mL); inhibition [9]: Active
